Laboratory results taken from patent publication US20110313032A1, “COMPETITIVE INHIBITORS OF TYPE II DEHYDROQUINASE ENZYME” (priority 2008, published 2011).
Where two headings read alike, the source gives them in different places.

Key:
[1] = molecular target: T1, type II dehydroquinase from Mycobacterium tuberculosis (Mycobacterium tuberculosis, UniProt P9WPX7); assay: biochemical; details: pH = 7.0, 25° C., 50 mM Tris•HOAc
Method: (§1) Effect of compounds of formula I of the invention on the catalytic activity of the type II dehydroquinase from various sources. The inhibitory potency of compounds I of the invention against type II dehydroquinases from Mycobacterium tuberculoris, Streptomyces coelicolor and Helicobacter pylori were assayed as it is described in the following articles: 1) Sanchez-Sixto, C.; Prazeres, V. F. V.; Castedo, L.; Lamb, H.; Hawkins, A. R.; Gonzalez-Bello, C. J. Med. Chem. 2005, 48, 4871; 2) Prazeres, V. F. V.; Sanchez-Sixto, C.; Castedo, L.; Lamb, H.; Hawkins, A. R.; Riboldi-Tunnicliffe; Coggins, J. R.; Lapthorn, A. J.; González-Bello, C. Chem Med Chem 2007, 2, 194; and 3) Sanchez-Sixto, C.; Prazeres, V. F. V.; Castedo, L.; S. W. Suh, Lamb, H.; Hawkins, A. R.; Canada, F. J.; Jiménez-Barbero, J.; González-Bello, C. Chem Med Chem 2008, 3, 756.

[2] = molecular target: T2, type II dehydroquinase from Helicobacter pylori (Helicobacter pylori, UniProt Q48255); assay: Inhibition of type II dehydroquinase from Helicobacter pylori (Ki); assay type: biochemical; details: pH = 7.0, 25° C., 50 mM Tris•HCl
T2 sequence (Q48255 1-167): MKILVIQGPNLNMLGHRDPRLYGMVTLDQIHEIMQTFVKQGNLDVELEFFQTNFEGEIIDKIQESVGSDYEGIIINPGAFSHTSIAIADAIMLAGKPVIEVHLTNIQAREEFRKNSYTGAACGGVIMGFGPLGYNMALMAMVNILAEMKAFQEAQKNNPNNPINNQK
Method: as §1

[3] = molecular target: type II dehydroquinase from Streptomyces coelicolor (Streptomyces coelicolor, UniProt P15474); assay: Inhibition of type II dehydroquinase from Streptomyces coelicolor (Ki); assay type: biochemical
type II dehydroquinase from Streptomyces coelicolor, sequence (P15474 whole entry): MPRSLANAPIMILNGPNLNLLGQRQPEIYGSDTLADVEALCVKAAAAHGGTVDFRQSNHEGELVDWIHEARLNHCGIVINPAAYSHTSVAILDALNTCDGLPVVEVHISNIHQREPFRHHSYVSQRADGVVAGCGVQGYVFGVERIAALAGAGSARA
Method: as §1

[4] = molecular target: T2, type II dehydroquinase from Helicobacter pylori; details: read-out: Km of natural substrate, H. pylori; cited from earlier work
[5] = molecular target: T1, type II dehydroquinase from Mycobacterium tuberculosis; details: read-out: Km of natural substrate, M. tuberculosis; cited from earlier work
[6] = Inhibition constants Ki, M. tuberculosis
[7] = read-out: Inhibition constants Ki, H. pylori
[8] = Inhibition constants Ki, S. coelicolor, pH = 7.0, 25° C., 50 mM Tris•HCl
[9] = read-out: Inhibition constants Ki, M. tuberculosis
[10] = Inhibition constants Ki, H. pylori
[11] = pH = 7.0, 25° C., 50 mM Tris•HCl, read-out: Inhibition constants Ki, S. coelicolor

T1 sequence (P9WPX7 whole entry): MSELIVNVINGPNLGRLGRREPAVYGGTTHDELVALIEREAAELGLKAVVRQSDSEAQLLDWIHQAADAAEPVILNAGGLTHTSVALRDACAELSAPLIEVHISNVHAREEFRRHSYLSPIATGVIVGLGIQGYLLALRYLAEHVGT

Question: Which melting point does the source give for `O=C([O-])[C@]1(O)C=C(OCc2ccc3sccc3c2)[C@@H](O)[C@H](O)C1.[Na+]` (hydrate or solvate) [Ib-7, Sodium (1R,4S,5R)-1,4,5-trihydroxy-3[(benzo[b]thiophen-5-yl)methoxy]cyclohex-2-en-1-carboxylate] here?
Answer: The melting point was 157 to 160 °C (dec.).

Question: With `O=C([O-])[C@@]1(O)C[C@@H](O)[C@H](O)C(OCc2ccc3ccccc3c2)=C1Cc1ccc2ccccc2c1.[Na+]` (hydrate or solvate) [Ib-11, Sodium (1R,4S,5R)-1,4,5-trihydroxy-3-(naphth-2-yl)methoxy-2-(naphth-2-yl)methylcyclohex-2-en-1-carboxylate] as the compound, how does the melting point read?
Answer: The melting point was 184 to 187 °C.

Question: For `O=C([O-])[C@@]1(O)C[C@@H](O)[C@H](O)C(OCc2cccs2)=C1Cc1cc2ccccc2s1.[Na+]` (hydrate or solvate) [Ib-12, Sodium (1R,4S,5R)-1,4,5-trihydroxy-3-(thien-2-yl)methoxy-2-(benzo[b]thiophen-2-yl)methylcyclohex-2-en-1-carboxylate], which melting point is on record?
Answer: The melting point was 191 to 194 °C.

Question: With `O=C([O-])[C@@]1(O)C[C@@H](O)[C@H](O)C(OCc2ccc3sccc3c2)=C1Cc1cccs1.[Na+]` (hydrate or solvate) [Ib-13, Sodium (1R,4S,5R)-1,4,5-trihydroxy-3-(benzo[b]thiophen-5-yl)methoxy-2-(thien-2-yl)methylcyclohex-2-en-1-carboxylate] as the compound, how does the melting point read?
Answer: Its melting point is 184 °C (dec.).

Question: With `Cc1cc2c(s1)[C@@H](O)[C@H](O)C[C@]2(O)C(=O)O` (hydrate or solvate) [Ic-2, (4R, 6R, 7S)-4,6,7-trihydroxy-2-methyl-4,5,6,7-tetrahydrobenzo[b]thiophen-4-carboxylic acid] as the compound, how does the melting point read?
Answer: The melting point was 92 to 95 °C.

Question: Which melting point does the source give for `Cc1ccc(CC2C(=O)C(O)C(O)CC2(O)C(=O)O)cc1` (single isomer, unassigned) (hydrate or solvate) [(2R)-Ia-4] here?
Answer: The melting point was 105 to 108 °C.

Question: With `O=C1C(O)C(O)CC(O)(C(=O)O)C1Cc1c(F)c(F)c(F)c(F)c1F` (single isomer, unassigned) (hydrate or solvate) [(2S)-Ia-6] as the compound, how does the melting point read?
Answer: The melting point was 123 to 125 °C.

Question: What does the source list for `Cc1ccc(CC2C(=O)C(O)C(O)CC2(O)C(=O)O)cc1` (single isomer, unassigned) [(2S)-Ia-4]?
Answer: Ki [1, 6]: 90 nM; Ki [2, 7]: 970 nM; Ki [3, 8]: 150 nM; melting point: 134 to 138 °C

Question: What does the source list for `COc1ccc(CC2C(=O)C(O)C(O)CC2(O)C(=O)O)cc1` (single isomer, unassigned) [(2S)-Ia-5]?
Answer: Ki [1, 6]: 100 nM; Ki [3, 8]: 340 nM; melting point: 138 to 143 °C

Question: Which results are given for `O=C1C(O)C(O)CC(O)(C(=O)O)C1Cc1ccc2sccc2c1` (single isomer, unassigned) [(2S)-Ia-7]?
Answer: Ki [1, 6]: 55 nM; Ki [2, 7]: 900 nM; Ki [3, 8]: 38 nM; melting point: 152 to 155 °C

Question: Which Ki [1, 9] does the source give for `O=C1[C@@H](O)[C@H](O)C[C@](O)(C(=O)O)[C@H]1Cc1ccccc1` [(2R)-Ia-3, (2R)-2-benzyl-3-dehydroquinic acid] here?
Answer: The Ki was 100 nM.

Question: And the Ki [2, 7]?
Answer: The Ki was 1400 nM.

Question: And the Ki [3, 8]?
Answer: The Ki was 1550 nM.

Question: What about the melting point of the same compound?
Answer: The melting point was 146 to 148 °C.

Question: With `O=C1[C@@H](O)[C@H](O)C[C@](O)(C(=O)O)[C@@H]1Cc1ccccc1` [(2S)-Ia-3, (2S)-2-benzyl-3-dehydroquinic acid] as the compound, how does the Ki [1, 9] read?
Answer: Its Ki is 90 nM.

Question: What about the Ki [2, 7] of the same compound?
Answer: Its Ki is 1180 nM.

Question: What about the Ki [3, 8] of the same compound?
Answer: The Ki was 1050 nM.

Question: What about the melting point of the same compound?
Answer: The melting point was 131 to 134 °C.

Question: What does the source list for `O=C(O)[C@@]1(O)C[C@@H](O)[C@H](O)c2sccc21` [Ic-1, (4R, 6R, 7S)-4,6,7-trihydroxy-4,5,6,7-tetrahydrobenzo[b]thiophen-4-carboxylic acid]?
Answer: Ki [1, 6]: 3000 nM; Ki [2, 10]: 34000 nM; Ki [3, 11]: 9700 nM; melting point: 128 to 131 °C

Question: What does the source list for `O=C(O)[C@@]1(O)C[C@@H](O)[C@H](O)c2sc(/C=C/C3CC3)cc21` [Ic-6]?
Answer: Ki [1, 6]: 110 nM; Ki [2, 10]: 1080 nM; Ki ([3]; read-out: affinities in the case of S. coelicolor): 0.3 nM; melting point: 103 to 105 °C

Question: For `O=C(O)[C@@]1(O)C[C@@H](O)[C@H](O)c2sc(-c3ccccc3)cc21` [Ic-7, (4R,6R,7S)-4,6,7-trihyclroxy-2-phenyl-4,5,6,7-tetrahydroben-zo[b]thiophen-4-carboxylic acid], which Ki [1, 6] is on record?
Answer: The Ki was 97 nM.

Question: What about the Ki [2, 10] of the same compound?
Answer: The Ki was greater than 150000 nM.

Question: And the Ki [3, 11]?
Answer: The Ki was 85 nM.

Question: And the melting point?
Answer: The melting point was 168 to 173 °C.

Question: For `CCc1cc2c(s1)[C@@H](O)[C@H](O)C[C@]2(O)C(=O)O` [Ic-9, (4R,6R,7S)-2-ethyl-4,6,7-trihydroxy-4,5,6,7-tetrahydrobenzo[b]thiophen-4-carboxylic acid], which Ki [1, 6] is on record?
Answer: Its Ki is 185 nM.

Question: And the Ki [2, 10]?
Answer: The Ki was 3400 nM.

Question: What about the Ki [3, 11] of the same compound?
Answer: The Ki was 800 nM.

Question: And the melting point?
Answer: The melting point was 130 °C (dec.).

Question: Which results are given for `O=C(O)[C@@]1(O)C[C@@H](O)[C@H](O)c2sc(/C=C/c3ccccc3)cc21` [Ic-11]?
Answer: Ki [2, 10]: 16000 nM; Ki [3, 11]: 150 nM; melting point: 200 °C (dec.)

Question: With `O=C1C[C@@](O)(C(=O)O)C[C@@H](O)[C@@H]1O` [natural substrate] as the compound, how does the Km [4] read?
Answer: Its Km is 444 µM.

Question: And the Km [5]?
Answer: The Km was 40 µM.
